According to US20250145665A1, “MACROCYCLIC PEPTIDES USEFUL AS MODULATORS OF TNF ALPHA” (Bristol-Myers Squibb Company, priority 2023, published 2025):
Starred links: 1 amine or outer side, 2 acyl side, 3 side chain; linkers in the order of their positions; H or OH if unused. Positions of bridges follow the written chain, without caps; N, C: chain ends. Non-standard residues stand in square brackets, D forms with d. Residues, ends and D or L forms follow the SMILES beside them. ξ: configuration not given here. *: point of attachment. X22 = O=C(O)COc1cccc(C(=O)N[C@@H](Cc2cn(CC(=O)O)c3ccccc23)C(=O)*)c1; Bip(4'-NH) = O=C([C@H](Cc1ccc(-c2ccc(N[*:3])cc2)cc1)N[*:1])[*:2]; X71 = O=C(O)Cn1cc(C[C@H](NC(=O)c2cccc(C(=O)O)c2)C(=O)*)c2ccccc21; Indazole3carbonyl(1-CH2COOH) = O=C(O)Cn1nc(C(=O)*)c2ccccc21; Bip(4'-COOH) = N[C@@H](Cc1ccc(-c2ccc(C(=O)O)cc2)cc1)C(=O)O; X27 = N=C(NCCC[C@@H](N[*:1])C(=O)[*:2])NCCc1ccc2c(c1)OCO2; X76 = O=C(O)CCC(=O)N[C@@H](Cc1cn(CC(=O)O)c2ccccc12)C(=O)*; X83 = N=C(NCCC[C@@H](N[*:1])C(=O)[*:2])NCCc1ccc(O)c(O)c1; Ala(imidazol-2-yl) = N[C@@H](Cc1ncc[nH]1)C(=O)O; Ala(morpholin-4-yl) = N[C@@H](CN1CCOCC1)C(=O)O; Bip = N[C@@H](Cc1ccc(-c2ccccc2)cc1)C(=O)O; X16 = Cc1noc(-c2ccc(C(=O)*)cc2)n1; Tic = O=C(O)[C@@H]1Cc2ccccc2CN1; Cha = N[C@@H](CC1CCCCC1)C(=O)O; X20 = O=C(c1csc(-c2ccncc2)n1)*; ξP = O=C(O)C1CCCN1; Sar = CNCC(=O)O

Molecular target: TNFα (Homo sapiens, UniProt P01375)
Sequence (P01375 77-233 limits assumed): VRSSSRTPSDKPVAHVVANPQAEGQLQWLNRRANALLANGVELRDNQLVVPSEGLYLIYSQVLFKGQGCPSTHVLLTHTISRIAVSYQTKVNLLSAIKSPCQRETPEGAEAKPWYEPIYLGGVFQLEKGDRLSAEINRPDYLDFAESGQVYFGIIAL
Assay: TNF-Induced HEK-Blue Assay
Format: cell-based
Conditions: not given

SMILES | IC50
CC(C)C[C@@H]1NC(=O)[C@H](CCCNC(=N)N)NC(=O)[C@H](C(C)C)NC(=O)[C@@H]2CCCN2C(=O)[C@H](C(C)C)NC(=O)[C@@H](CCCNC(=N)NCCc2ccc3c(c2)OCO3)NC(=O)[C@H](CC(=O)O)NC(=O)[C@@H]2CCCN2C(=O)CN(C)C(=O)[C@H](Cc2ccc(-c3ccc(NC(=O)c4nn(CC(=O)O)c5ccccc45)cc3)cc2)NC(=O)[C@H](Cc2ccc(-c3ccc(C(=O)O)cc3)cc2)NC(=O)[C@H](CN2CCOCC2)NC(=O)CSC[C@@H](C(=O)NCC(N)=O)NC1=O [Example 409] ({CH2CO}-[Ala(morpholin-4-yl)][Bip(4'-COOH)][Bip(4'-NH)](Indazole3carbonyl(1-CH2COOH))[Sar]PD[X27]VPVRLCG-NH2; thioether N-13) | 50 to 200 nM
CC(C)C[C@@H]1NC(=O)[C@H](CCCNC(=N)N)NC(=O)[C@H](C(C)C)NC(=O)C2CCCN2C(=O)[C@H](C(C)C)NC(=O)[C@@H](CCCNC(=N)NCCc2ccc(O)c(O)c2)NC(=O)[C@H](CC(=O)O)NC(=O)[C@@H]2CCCN2C(=O)CN(C)C(=O)[C@H](Cc2ccc(-c3ccc(NC(=O)c4nn(CC(=O)O)c5ccccc45)cc3)cc2)NC(=O)[C@H](Cc2ccc(-c3ccccc3)cc2)NC(=O)[C@H](CN2CCOCC2)NC(=O)CSC[C@@H](C(=O)NCC(N)=O)NC1=O (stereo partly shown) [Example 410] ({CH2CO}-[Ala(morpholin-4-yl)][Bip][Bip(4'-NH)](Indazole3carbonyl(1-CH2COOH))[Sar]PD[X83]V[ξP]VRLCG-NH2; thioether N-13) | 200 to 2000 nM

Same assay, conditions: HEK-Blue-CD40L cells, NF-kB-driven secreted alkaline phosphatase reporter; TNFα 0.5 ng/ml; 18 h; read-out: TNF induced HEK-Blue assay IC50 value

SMILES | IC50
CC[C@H](C)[C@@H]1NC(=O)[C@@H](CCCNC(=N)N)NC(=O)[C@H](CC(=O)O)NC(=O)[C@H](Cc2cnc[nH]2)NC(=O)CN(C)C(=O)[C@H](Cc2ccc(-c3ccc(NC(=O)c4csc(-c5ccncc5)n4)cc3)cc2)NC(=O)[C@H](Cc2ccc(-c3ccc(C(=O)O)cc3)cc2)NC(=O)[C@H](CC2CCCCC2)NC(=O)CSC[C@@H](C(=O)NCC(N)=O)NC(=O)[C@H](CC(C)C)NC(=O)[C@H](Cc2ncc[nH]2)NC(=O)[C@H](C(C)C)NC(=O)[C@@H]2Cc3ccccc3CN2C1=O [Example 411] ({CH2CO}-[Cha][Bip(4'-COOH)][Bip(4'-NH)](X20)[Sar]HD[dR]I[Tic]V[Ala(imidazol-2-yl)]LCG-NH2; thioether N-13) | 50 to 200 nM
CC[C@H](C)[C@@H]1NC(=O)[C@@H](CCCNC(=N)N)NC(=O)[C@H](CC(=O)O)NC(=O)[C@H](Cc2cnc[nH]2)NC(=O)CN(C)C(=O)[C@H](Cc2ccc(-c3ccc(NC(=O)c4ccc(-c5nc(C)no5)cc4)cc3)cc2)NC(=O)[C@H](Cc2ccc(-c3ccc(C(=O)O)cc3)cc2)NC(=O)[C@H](CC2CCCCC2)NC(=O)CSC[C@@H](C(=O)NCC(N)=O)NC(=O)[C@H](CC(C)C)NC(=O)[C@H](Cc2ncc[nH]2)NC(=O)[C@H](C(C)C)NC(=O)[C@@H]2Cc3ccccc3CN2C1=O [Example 412] ({CH2CO}-[Cha][Bip(4'-COOH)][Bip(4'-NH)](X16)[Sar]HD[dR]I[Tic]V[Ala(imidazol-2-yl)]LCG-NH2; thioether N-13) | 50 to 200 nM
CC[C@H](C)[C@@H]1NC(=O)[C@@H](CCCNC(=N)N)NC(=O)[C@H](CC(=O)O)NC(=O)[C@H](Cc2cnc[nH]2)NC(=O)CN(C)C(=O)[C@H](Cc2ccc(-c3ccc(NC(=O)[C@H](Cc4cn(CC(=O)O)c5ccccc45)NC(=O)CCC(=O)O)cc3)cc2)NC(=O)[C@H](Cc2ccc(-c3ccccc3)cc2)NC(=O)[C@H](CC2CCCCC2)NC(=O)CSC[C@@H](C(=O)NCC(N)=O)NC(=O)[C@H](CC(C)C)NC(=O)[C@H](Cc2ncc[nH]2)NC(=O)[C@H](C(C)C)NC(=O)[C@@H]2CCCN2C1=O [Example 413] ({CH2CO}-[Cha][Bip][Bip(4'-NH)](X76)[Sar]HD[dR]IPV[Ala(imidazol-2-yl)]LCG-NH2; thioether N-13) | 200 to 2000 nM
CC[C@H](C)[C@@H]1NC(=O)[C@@H](CCCNC(=N)N)NC(=O)[C@H](CC(=O)O)NC(=O)[C@H](Cc2cnc[nH]2)NC(=O)CN(C)C(=O)[C@H](Cc2ccc(-c3ccc(NC(=O)[C@H](Cc4cn(CC(=O)O)c5ccccc45)NC(=O)c4cccc(OCC(=O)O)c4)cc3)cc2)NC(=O)[C@H](Cc2ccc(-c3ccccc3)cc2)NC(=O)[C@H](CC2CCCCC2)NC(=O)CSC[C@@H](C(=O)NCC(N)=O)NC(=O)[C@H](CC(C)C)NC(=O)[C@H](Cc2ncc[nH]2)NC(=O)[C@H](C(C)C)NC(=O)[C@@H]2CCCN2C1=O [Example 414] ({CH2CO}-[Cha][Bip][Bip(4'-NH)](X22)[Sar]HD[dR]IPV[Ala(imidazol-2-yl)]LCG-NH2; thioether N-13) | 50 to 200 nM
CC[C@H](C)[C@@H]1NC(=O)[C@@H](CCCNC(=N)N)NC(=O)[C@H](CC(=O)O)NC(=O)[C@H](Cc2cnc[nH]2)NC(=O)CN(C)C(=O)[C@H](Cc2ccc(-c3ccc(NC(=O)[C@H](Cc4cn(CC(=O)O)c5ccccc45)NC(=O)c4cccc(C(=O)O)c4)cc3)cc2)NC(=O)[C@H](Cc2ccc(-c3ccccc3)cc2)NC(=O)[C@H](CC2CCCCC2)NC(=O)CSC[C@@H](C(=O)NCC(N)=O)NC(=O)[C@H](CC(C)C)NC(=O)[C@H](Cc2ncc[nH]2)NC(=O)[C@H](C(C)C)NC(=O)[C@@H]2CCCN2C1=O [Example 415] ({CH2CO}-[Cha][Bip][Bip(4'-NH)](X71)[Sar]HD[dR]IPV[Ala(imidazol-2-yl)]LCG-NH2; thioether N-13) | 50 to 200 nM
